# Laboratory results reported in patent US8168625B2, “Pharmaceutical composition based on agonist of benzodiazepine” (Sigma Pharma Ltda., priority 2003, dated 2012).
# Read-outs that look alike come from different tables or passages of the source.
# Assays:
# [1] = Bioavailability after single dose: sublingual tablets (Examples I-III) versus conventional oral tablets, crossed randomized studies; conditions: for AUC(0-inf) / AUC(0-t) / Cmax / Tmax / concentration / concentration at 0 min / concentration at 20 min / concentration at 40 min / concentration at 1 h / concentration at 2 h / concentration at 2.5 h / concentration at 4 h / concentration at 6 h / concentration at 8 h / concentration at 10 h / concentration at 12 h / concentration at 24 h: male, human, plasma; for AUC and Cmax, sublingual versus oral: sublingual versus conventional oral tablets
# Procedure: Three studies were carried out, each of them with eight healthy volunteers of the male sex, recruited after information on the nature and characteristics of the principles included in the scope of the study. Each study, composed of two periods of treatment, was carried out according to a crossed and randomized scheme. All individuals received the previously established dose of the active ingredient in the form of conventional oral tablets and sublingual tablets, with a period of detoxication of, at least, seven days between the first and the following administration, according to a previously established randomized list. The sublingual tablets were placed under the tongue until complete dissolution, in correspondence with the venous plexus, while the conventional oral tablets were swallowed unbroken with 150 ml of mineral water. Within the intervals of 0-20-40 minutes, 1-1,5-2-2,5-3-3,5-4-6-8-10-[…] and 24 hours after the treatment, 5 ml of blood were collected.
# [2] = cited from earlier work; for plasmatic concentration peak: 2 mg tablets
Structure (SMILES),AUC(0-inf) [1] [ng·h/mL],AUC(0-t) [1] [ng·h/mL],Cmax [1] [ng/mL],Tmax [1] [min],concentration ([1]; other: sublingual) [ng/mL],concentration at 0 min ([1]; other: sublingual) [ng/mL],concentration at 20 min ([1]; other: sublingual) [ng/mL],concentration at 40 min ([1]; other: sublingual) [ng/mL],concentration at 1 h ([1]; other: sublingual) [ng/mL],concentration at 2 h ([1]; other: sublingual) [ng/mL],concentration at 2.5 h ([1]; other: sublingual) [ng/mL],concentration at 4 h ([1]; other: sublingual) [ng/mL],concentration at 6 h ([1]; other: sublingual) [ng/mL],concentration at 8 h ([1]; other: sublingual) [ng/mL],concentration at 10 h ([1]; other: sublingual) [ng/mL],concentration at 12 h ([1]; other: sublingual) [ng/mL],concentration at 24 h ([1]; other: sublingual) [ng/mL],Tmax ([1]; other: sublingual versus oral) [min],AUC(0-inf) ([1]; po) [ng·h/mL],AUC(0-t) ([1]; po) [ng·h/mL],other results
"O=C1CN=C(c2ccccn2)c2cc(Br)ccc2N1 [BROMAZEPAN, bromazepam]",1900 ± 326,1160 ± 102,120 ± 12.1,45 ± 9,67.9 ± 6.1,0,80.8 ± 11.3,109 ± 22.1,110 ± 15.2,84 ± 5.7,74.2 ± 5.7,63.4 ± 5.5,57.1 ± 5,49.4 ± 7,44.8 ± 6.2,38.8 ± 5.6,33.5 ± 6.1,~30,1760 ± 223,1130 ± 60.2,"Cmax ([1]; po): 125 ± 9.81 ng/mL; Tmax ([1]; po): 75 ± 22.8 min; concentration ([1]; po): 70.2 ± 6.8 ng/mL; concentration at 20 min ([1]; po): 69 ± 10.1 ng/mL; concentration at 40 min ([1]; po): 91.7 ± 5.6 ng/mL; concentration at 1 h ([1]; po): 117 ± 14.9 ng/mL; concentration at 2 h ([1]; po): 91.6 ± 9.7 ng/mL; concentration at 2.5 h ([1]; po): 77.2 ± 5.9 ng/mL; concentration at 4 h ([1]; po): 63.1 ± 6.9 ng/mL; concentration at 6 h ([1]; po): 53.4 ± 4.8 ng/mL; concentration at 8 h ([1]; po): 49.1 ± 4.4 ng/mL; concentration at 10 h ([1]; po): 42.7 ± 3.1 ng/mL; concentration at 12 h ([1]; po): 37.9 ± 3 ng/mL; concentration at 24 h ([1]; po): 30.2 ± 3.8 ng/mL; AUC and Cmax, sublingual versus oral [1]: comparable"
"CN1C(=O)CN=C(c2ccccc2)c2cc(Cl)ccc21 [DIAZEPAM, diazepam]",,,,,,,,,,,,,,,,,,,,,hematological rates after sublingual administration in relation to oral administration ([1]; first hour): definitely higher
"O=C1Nc2ccc(Cl)cc2C(c2ccccc2Cl)=NC1O (stereo not drawn) [LORAZEPAM, lorazepam]",621 ± 70.1,452 ± 53,56.9 ± 8.41,42.6 ± 720,28.3 ± 4.2,0,44.5 ± 5.9,56.5 ± 8.5,47.9 ± 8.5,37.2 ± 7.7,32.2 ± 4.4,25.6 ± 5,22.8 ± 4.61,9.6 ± 3.7,17.6 ± 2.6,14.5 ± 2.3,10.3 ± 1.1,~30,656 ± 143,454 ± 74.1,"Cmax ([1]; po): 54.4 ± 4.98 ng/mL; Tmax ([1]; po): 91.2 ± 29.4 min; concentration ([1]; po): 33.4 ± 10.3 ng/mL; concentration at 0 min ([1]; po): 0 ng/mL; concentration at 20 min ([1]; po): 30.8 ± 9.4 ng/mL; concentration at 40 min ([1]; po): 41 ± 10.4 ng/mL; concentration at 1 h ([1]; po): 46.1 ± 7.9 ng/mL; concentration at 2 h ([1]; po): 47.3 ± 9.1 ng/mL; concentration at 2.5 h ([1]; po): 39 ± 10.2 ng/mL; concentration at 4 h ([1]; po): 28.2 ± 8.4 ng/mL; concentration at 6 h ([1]; po): 22.6 ± 5.7 ng/mL; concentration at 8 h ([1]; po): 19.6 ± 4.8 ng/mL; concentration at 10 h ([1]; po): 16.6 ± 3.5 ng/mL; concentration at 12 h ([1]; po): 13.5 ± 2.3 ng/mL; concentration at 24 h ([1]; po): 10.6 ± 1.7 ng/mL; AUC and Cmax, sublingual versus oral [1]: comparable; plasmatic concentration peak ([2]; after oral administration): ~17 ng/mL; plasmatic concentration peak ([2]; after sublingual administration): about 25 ng/ml; absorption of sublingual formulation compared to oral tablets and intramuscular formulation ([2]; during the first 60 minutes, 2 mg): higher"
